Measured values reported in the supplement of paper PMC10307832.

Experiments:
Experiment in all cases: relative viability (nuclei count vs DMSO), 5 days (fraction); higher = more cells survive
NCI-H1792 = system: NCI-H1792
Outline: (§1)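 Dosing by pin tool came one day after lung cancer cell lines were seeded in 1536-well plates, using either one drug or a fixed anchor-drug dose plus five library-drug doses (not always all listed) in √10 steps. After 5 days, nuclei were counted on 4× images. Relative viability is treated-well nuclei count divided by vehicle-well nuclei count, and values are medians of duplicate plates.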

EKVX = system: EKVX
Outline: as §1

EMC-BAC-2 = system: EMC-BAC-2
Outline: as §1

ChaGo-K-1 = system: ChaGo-K-1
Outline: as §1

SK-MES-1 = system: SK-MES-1
Outline: as §1

NCI-H520 = system: NCI-H520
Outline: as §1

NCI-H1975 = system: NCI-H1975
Outline: as §1

PC-3 [JPC-3] = system: PC-3 [JPC-3]
Outline: as §1

NCI-H1755 = system: NCI-H1755
Outline: as §1

NCI-H1563 = system: NCI-H1563
Outline: as §1

NCI-H596 = system: NCI-H596
Outline: as §1

LK-2 = system: LK-2
Outline: as §1

H3255 = system: H3255
Outline: as §1

LOU-NH91 = system: LOU-NH91
Outline: as §1

NCI-H1666 = system: NCI-H1666
Outline: as §1

HCC-366 = system: HCC-366
Outline: as §1

COR-L 105 = system: COR-L 105
Outline: as §1

A-427 = system: A-427
Outline: as §1

NCI-H441 = system: NCI-H441
Outline: as §1

NCI-H1734 = system: NCI-H1734
Outline: as §1

NCI-H2170 = system: NCI-H2170
Outline: as §1

NCI-H23 = system: NCI-H23
Outline: as §1

## CC1(C)CCC(c2ccc(Cl)cc2)=C(CN2CCN(c3ccc(C(=O)NS(=O)(=O)c4ccc(N[C@H](CCN5CCOCC5)CSc5ccccc5)c(S(=O)(=O)C(F)(F)F)c4)cc3)CC2)C1 [Navitoclax] + C[C@@H](Oc1cc(-c2cnn(C3CCNCC3)c2)cnc1N)c1c(Cl)ccc(F)c1Cl [Crizotinib] (partner 1 µM)
NCI-H1792; first compound 0.005 µM
  relative viability: 0.996
NCI-H1792; first compound 0.01581 µM
  relative viability: 1.04
NCI-H1792; first compound 0.05 µM
  relative viability: 0.911
NCI-H1792; first compound 0.1581 µM
  relative viability: 1
NCI-H1792; first compound 0.5 µM
  relative viability: 0.946
EKVX; first compound 0.005 µM
  relative viability: 1
EKVX; first compound 0.01581 µM
  relative viability: 1.16
EKVX; first compound 0.05 µM
  relative viability: 1.08
EKVX; first compound 0.1581 µM
  relative viability: 0.93
EKVX; first compound 0.5 µM
  relative viability: 0.888
EMC-BAC-2; first compound 0.005 µM
  relative viability: 0.716
EMC-BAC-2; first compound 0.01581 µM
  relative viability: 0.689
EMC-BAC-2; first compound 0.05 µM
  relative viability: 0.743
EMC-BAC-2; first compound 0.1581 µM
  relative viability: 0.703
EMC-BAC-2; first compound 0.5 µM
  relative viability: 0.701
ChaGo-K-1; first compound 0.005 µM
  relative viability: 1.1
ChaGo-K-1; first compound 0.01581 µM
  relative viability: 1.11
ChaGo-K-1; first compound 0.05 µM
  relative viability: 0.601
ChaGo-K-1; first compound 0.1581 µM
  relative viability: 1.1
ChaGo-K-1; first compound 0.5 µM
  relative viability: 1.19
SK-MES-1; first compound 0.005 µM
  relative viability: 0.953
SK-MES-1; first compound 0.01581 µM
  relative viability: 1.07
SK-MES-1; first compound 0.05 µM
  relative viability: 1.08
SK-MES-1; first compound 0.1581 µM
  relative viability: 0.953
SK-MES-1; first compound 0.5 µM
  relative viability: 0.978
NCI-H520; first compound 0.005 µM
  relative viability: 0.751
NCI-H520; first compound 0.01581 µM
  relative viability: 0.715
NCI-H520; first compound 0.05 µM
  relative viability: 0.762
NCI-H520; first compound 0.1581 µM
  relative viability: 0.737
NCI-H520; first compound 0.5 µM
  relative viability: 0.79
NCI-H1975; first compound 0.005 µM
  relative viability: 0.836
NCI-H1975; first compound 0.01581 µM
  relative viability: 1.07
NCI-H1975; first compound 0.05 µM
  relative viability: 1.12
NCI-H1975; first compound 0.1581 µM
  relative viability: 0.921
NCI-H1975; first compound 0.5 µM
  relative viability: 0.887
PC-3 [JPC-3]; first compound 0.005 µM
  relative viability: 1.01
PC-3 [JPC-3]; first compound 0.01581 µM
  relative viability: 0.986
PC-3 [JPC-3]; first compound 0.05 µM
  relative viability: 0.927
PC-3 [JPC-3]; first compound 0.1581 µM
  relative viability: 0.991
PC-3 [JPC-3]; first compound 0.5 µM
  relative viability: 0.963
NCI-H1755; first compound 0.005 µM
  relative viability: 0.823
NCI-H1755; first compound 0.01581 µM
  relative viability: 0.903
NCI-H1755; first compound 0.05 µM
  relative viability: 0.715
NCI-H1755; first compound 0.1581 µM
  relative viability: 0.859
NCI-H1755; first compound 0.5 µM
  relative viability: 0.89
NCI-H1563; first compound 0.005 µM
  relative viability: 0.908
NCI-H1563; first compound 0.01581 µM
  relative viability: 0.92
NCI-H1563; first compound 0.05 µM
  relative viability: 0.897
NCI-H1563; first compound 0.1581 µM
  relative viability: 0.808
NCI-H1563; first compound 0.5 µM
  relative viability: 1.12
NCI-H596; first compound 0.005 µM
  relative viability: 1.02
NCI-H596; first compound 0.01581 µM
  relative viability: 0.985
NCI-H596; first compound 0.05 µM
  relative viability: 0.802
NCI-H596; first compound 0.1581 µM
  relative viability: 1.02
NCI-H596; first compound 0.5 µM
  relative viability: 1.01
LK-2; first compound 0.005 µM
  relative viability: 0.226
LK-2; first compound 0.01581 µM
  relative viability: 0.21
LK-2; first compound 0.05 µM
  relative viability: 0.246
LK-2; first compound 0.1581 µM
  relative viability: 0.191
LK-2; first compound 0.5 µM
  relative viability: 0.263
H3255; first compound 0.005 µM
  relative viability: 0.902
H3255; first compound 0.01581 µM
  relative viability: 1.06
H3255; first compound 0.05 µM
  relative viability: 0.807
H3255; first compound 0.1581 µM
  relative viability: 0.891
H3255; first compound 0.5 µM
  relative viability: 0.835
LOU-NH91; first compound 0.005 µM
  relative viability: 0.766
LOU-NH91; first compound 0.01581 µM
  relative viability: 0.742
LOU-NH91; first compound 0.05 µM
  relative viability: 0.807
LOU-NH91; first compound 0.1581 µM
  relative viability: 0.731
LOU-NH91; first compound 0.5 µM
  relative viability: 0.711
NCI-H1666; first compound 0.005 µM
  relative viability: 0.991
NCI-H1666; first compound 0.01581 µM
  relative viability: 1.08
NCI-H1666; first compound 0.05 µM
  relative viability: 1.03
NCI-H1666; first compound 0.1581 µM
  relative viability: 0.879
NCI-H1666; first compound 0.5 µM
  relative viability: 0.975
HCC-366; first compound 0.005 µM
  relative viability: 0.456
HCC-366; first compound 0.01581 µM
  relative viability: 0.635
HCC-366; first compound 0.05 µM
  relative viability: 0.0527
HCC-366; first compound 0.1581 µM
  relative viability: 0.514
HCC-366; first compound 0.5 µM
  relative viability: 0.562
COR-L 105; first compound 0.005 µM
  relative viability: 0.651
COR-L 105; first compound 0.01581 µM
  relative viability: 0.98
COR-L 105; first compound 0.05 µM
  relative viability: 0.773
COR-L 105; first compound 0.1581 µM
  relative viability: 0.927
COR-L 105; first compound 0.5 µM
  relative viability: 0.699
A-427; first compound 0.005 µM
  relative viability: 0.828
A-427; first compound 0.01581 µM
  relative viability: 0.948
A-427; first compound 0.05 µM
  relative viability: 0.652
A-427; first compound 0.1581 µM
  relative viability: 1.01
A-427; first compound 0.5 µM
  relative viability: 0.915
NCI-H441; first compound 0.005 µM
  relative viability: 0.657
NCI-H441; first compound 0.01581 µM
  relative viability: 0.865
NCI-H441; first compound 0.05 µM
  relative viability: 0.734
NCI-H441; first compound 0.1581 µM
  relative viability: 0.764
NCI-H441; first compound 0.5 µM
  relative viability: 0.621
NCI-H1734; first compound 0.005 µM
  relative viability: 0.705
NCI-H1734; first compound 0.01581 µM
  relative viability: 0.681
NCI-H1734; first compound 0.1581 µM
  relative viability: 0.785
NCI-H1734; first compound 0.5 µM
  relative viability: 0.693
NCI-H2170; first compound 0.005 µM
  relative viability: 1.06
NCI-H2170; first compound 0.01581 µM
  relative viability: 1.28
NCI-H2170; first compound 0.05 µM
  relative viability: 1.21
NCI-H2170; first compound 0.1581 µM
  relative viability: 1.06
NCI-H2170; first compound 0.5 µM
  relative viability: 1.05
NCI-H23; first compound 0.005 µM
  relative viability: 0.519
NCI-H23; first compound 0.01581 µM
  relative viability: 0.494
NCI-H23; first compound 0.05 µM
  relative viability: 0.516
NCI-H23; first compound 0.1581 µM
  relative viability: 0.516
NCI-H23; first compound 0.5 µM
  relative viability: 0.545
